Assay results published in patent US6833262B1 (priority 1999, dated 2004).
Where two headings read alike, the source gives them in different places. Peptide text beside a SMILES is read from it.

Key:
periodontain [1] = test: Activation of periodontain by reducing agents and additives; format: biochemical, Porphyromonas gingivalis; conditions: for Periodontain activity achieved with reducing agent: reducing agent at 0.1 mM concentration
periodontain [2] = format: biochemical, Porphyromonas gingivalis
Kgp = Kgp (Porphyromonas gingivalis, UniProt B2RLK2); conditions: cited from earlier work
Rgp's = conditions: cited from earlier work
[3] = system: human α1-proteinase inhibitor

Molecule: O[C@H](CS)[C@H](O)CS (racemic) [DTT, dithiothreitol]
- Periodontain activity achieved with reducing agent (periodontain [1]): full activity

Molecule: CC(C)C[C@H](NC(=O)[C@H]1O[C@@H]1C(=O)O)C(=O)NCCCCN=C(N)N (relative stereo) [E-64, L-trans-epoxysuccinyl-leucylamide-(4-guanidino)-butane]
- Inhibition of periodontain (in words) (periodontain [2]): readily inhibited
- Percent Inhibition (periodontain [2]; 100 µM): 100%
- Inhibition of Kgp (Kgp): not inhibited
- Inhibition of Rgp's (Rgp's): only weakly inhibited

Molecule: O=c1oc(Cl)c(Cl)c2ccccc12 [Dichloroisocoumarin, 3,4 dichloroisocoumarin]
- Inhibition of periodontain (in words) (periodontain [2]): readily inhibited
- Percent Inhibition (periodontain [2]): 2%

Molecule: NC(=O)CI [Idoacetamide]
- Inhibition of periodontain (in words) (periodontain [2]): readily inhibited
- Percent Inhibition (periodontain [2]): 100%

Molecule: CC(=O)N[C@@H](CC(C)C)C(=O)N[C@@H](CC(C)C)C(=O)N[C@H](C=O)CCCNC(=N)N [Leupeptin]
- Inhibition of periodontain (in words) (periodontain [2]): readily inhibited
- Percent Inhibition (periodontain [2]; 50 µM): 88%

Molecule: NC(N)=NCCC[C@H](NC(=O)[C@@H]1CCCN1C(=O)[C@H](N)Cc1ccccc1)C(=O)CCl [Phe—Pro—Arg chloromethyl ketone, Phe-Pro-Arg chloromethyl ketone]
- Inhibition of periodontain (in words) (periodontain [2]): readily inhibited
- Percent Inhibition (periodontain [2]; 10 µM): 96%

Molecule: NCCCC[C@H](NC(=O)[C@H](Cc1ccccc1)NC(=O)OCc1ccccc1)C(=O)COC(=O)c1ccccc1 [Z-Phe—Lys benzoyloxy methyl ketone, Z-Phe-Lys benzoyloxy methyl ketone]
- Inhibition of periodontain (in words) (periodontain [2]): readily inhibited
- Percent Inhibition (periodontain [2]; 10 µM): 99%

Molecule: N[C@@H](CS)C(=O)O [free cysteine, cysteine]
- Periodontain activity achieved with reducing agent (periodontain [1]): full activity

Molecule: NCC(=O)NCC(=O)O [glycyl-glycine] (H-Gly-Gly-OH)
- Stimulation of periodontain activity (periodontain [1]; data not shown): did not stimulate activity

Molecule: OCCS [β-mercaptoethanol]
- Periodontain activity achieved with reducing agent (periodontain [1]): full activity

Molecule: Tosyl-L-lysine chloromethyl ketone
- Inhibition of periodontain (in words) (periodontain [2]): readily inhibited
- Percent Inhibition (periodontain [2]): 91%

Molecule: calcium ions
- Stabilizing effect on periodontain (periodontain [1]; data not shown): did not have a stabilizing effect

Molecule: ethylenediaminetetra-acetate [EDTA]
- Percent Inhibition (periodontain [2]): 0%

Molecule: periodontain (mature native heterodimer purified from P. gingivalis HG66 culture fluid)
- hydrolysis of a synthetic pNA substrate (Phe-Leu-Glu-pNA): no hydrolysis was detected
- Specific Activity (α1-PI inactivation assay, final TSK gel filtration step) [3]: 368 units/mg
